Reference: ChEMBL document CHEMBL1201862, “PubChem BioAssay data set” (2004)
Values joined by “and” are separate entries in the source; they are usually repeats but may differ in a detail not shown here. Identical values can stand only once. Active and inactive are the calls of the source.

Legend:
[1] = cells
[2] = molecular target: Heat shock protein HSP 90-alpha (Homo sapiens, UniProt P07900); assay type: functional, organism-based
[3] = cytotoxicity toward DRD oncogenic fibroblasts, dose response, cell-based, non-viral oncogenic, luminescence (AID 1934); assay type: functional; settings: Homo sapiens
[4] = test system: Vero; assay: Vero cell cytotoxicity, cytotoxicity control for flavivirus capping enzyme inhibitors (AID 588742); assay type: functional; settings: Chlorocebus sabaeus
[5] = molecular target: Lysine-specific demethylase 4C (Homo sapiens, UniProt Q9H3R0); assay: GASC-1 (JMJD2C) histone demethylase inhibitors, dose response, biochemical, DELFIA europium, cherry-picked samples (AID 488835); assay type: functional
[6] = molecular target: T1, Tyrosine-protein phosphatase non-receptor type 22 (Homo sapiens, UniProt Q9Y2R2); assay: inhibitors of LYP phosphatase, biochemical, fluorescence intensity, uHTS (AID 1779)
T1 sequence (Q9Y2R2 whole entry): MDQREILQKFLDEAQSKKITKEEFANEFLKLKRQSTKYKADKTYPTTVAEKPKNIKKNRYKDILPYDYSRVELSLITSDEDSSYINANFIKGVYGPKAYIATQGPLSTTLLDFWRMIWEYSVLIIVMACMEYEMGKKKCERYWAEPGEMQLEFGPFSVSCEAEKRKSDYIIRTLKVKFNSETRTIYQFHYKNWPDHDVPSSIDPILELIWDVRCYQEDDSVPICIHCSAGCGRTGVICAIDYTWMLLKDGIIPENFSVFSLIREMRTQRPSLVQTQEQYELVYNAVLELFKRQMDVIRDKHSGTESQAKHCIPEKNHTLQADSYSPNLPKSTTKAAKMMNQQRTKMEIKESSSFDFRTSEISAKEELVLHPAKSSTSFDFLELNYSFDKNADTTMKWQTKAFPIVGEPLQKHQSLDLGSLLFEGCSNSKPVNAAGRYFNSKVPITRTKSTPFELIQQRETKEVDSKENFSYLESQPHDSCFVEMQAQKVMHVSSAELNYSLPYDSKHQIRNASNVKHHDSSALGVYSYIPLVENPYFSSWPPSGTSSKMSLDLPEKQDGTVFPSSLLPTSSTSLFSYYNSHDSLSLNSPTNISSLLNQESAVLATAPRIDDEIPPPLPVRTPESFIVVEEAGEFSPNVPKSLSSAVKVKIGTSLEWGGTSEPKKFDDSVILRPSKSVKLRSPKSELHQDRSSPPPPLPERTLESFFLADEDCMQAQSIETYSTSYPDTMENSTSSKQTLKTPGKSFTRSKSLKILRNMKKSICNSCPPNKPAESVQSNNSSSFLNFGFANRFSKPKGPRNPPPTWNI

[7] = molecular target: T2, Cysteine protease ATG4B (Homo sapiens, UniProt Q9Y4P1); assay type: functional;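 note: Fluorescence-based dose-response confirmation assay measuring inhibition of ATG4B activity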
T2 sequence (Q9Y4P1 whole entry): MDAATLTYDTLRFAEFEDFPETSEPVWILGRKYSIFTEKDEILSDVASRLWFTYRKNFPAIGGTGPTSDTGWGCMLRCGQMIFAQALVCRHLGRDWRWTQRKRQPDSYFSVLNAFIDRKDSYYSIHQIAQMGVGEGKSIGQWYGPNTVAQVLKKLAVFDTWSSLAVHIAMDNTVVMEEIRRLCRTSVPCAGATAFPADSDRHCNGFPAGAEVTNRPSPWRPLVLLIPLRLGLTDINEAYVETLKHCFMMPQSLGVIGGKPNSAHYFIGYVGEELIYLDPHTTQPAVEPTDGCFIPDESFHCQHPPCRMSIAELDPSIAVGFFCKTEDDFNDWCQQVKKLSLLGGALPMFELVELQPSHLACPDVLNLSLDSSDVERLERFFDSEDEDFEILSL

Sequence of Lysine-specific demethylase 4C (Q9H3R0 whole entry): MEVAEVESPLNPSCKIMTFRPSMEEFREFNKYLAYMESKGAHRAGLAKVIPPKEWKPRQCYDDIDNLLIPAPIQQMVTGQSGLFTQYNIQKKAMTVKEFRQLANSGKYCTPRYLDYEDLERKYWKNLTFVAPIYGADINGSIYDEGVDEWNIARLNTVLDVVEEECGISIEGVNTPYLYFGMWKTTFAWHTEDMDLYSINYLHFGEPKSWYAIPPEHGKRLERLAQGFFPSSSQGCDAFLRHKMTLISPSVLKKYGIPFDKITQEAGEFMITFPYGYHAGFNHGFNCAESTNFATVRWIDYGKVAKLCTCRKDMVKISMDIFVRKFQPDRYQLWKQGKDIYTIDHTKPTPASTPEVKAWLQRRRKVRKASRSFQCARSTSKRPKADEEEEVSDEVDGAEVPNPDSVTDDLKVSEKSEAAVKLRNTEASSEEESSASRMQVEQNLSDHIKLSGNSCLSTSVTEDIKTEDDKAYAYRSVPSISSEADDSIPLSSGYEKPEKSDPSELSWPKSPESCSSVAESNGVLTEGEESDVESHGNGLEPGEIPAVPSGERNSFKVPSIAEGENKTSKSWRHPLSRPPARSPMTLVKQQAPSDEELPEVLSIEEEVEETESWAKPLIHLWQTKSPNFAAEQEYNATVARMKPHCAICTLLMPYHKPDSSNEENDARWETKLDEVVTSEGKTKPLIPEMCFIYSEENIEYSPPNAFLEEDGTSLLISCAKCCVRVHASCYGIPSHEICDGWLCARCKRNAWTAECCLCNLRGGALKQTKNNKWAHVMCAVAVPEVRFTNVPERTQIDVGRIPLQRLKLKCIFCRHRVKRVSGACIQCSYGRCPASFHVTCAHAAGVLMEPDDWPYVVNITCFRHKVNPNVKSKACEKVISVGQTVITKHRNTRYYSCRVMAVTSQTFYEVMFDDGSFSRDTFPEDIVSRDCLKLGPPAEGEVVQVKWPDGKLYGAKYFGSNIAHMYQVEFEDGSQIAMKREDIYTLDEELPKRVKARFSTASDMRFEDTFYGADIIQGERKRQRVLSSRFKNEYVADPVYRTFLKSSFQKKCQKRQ

**Q.** For `CCN1/C(=C/c2ccc3cc(C)ccc3[n+]2CC)Sc2cc(C)c(C)cc21`, which EC50 [1] is on record?
**A.** 0.046 µM (active)

**Q.** What about the AC50 [2] of the same compound?
**A.** 4.16 µM (active) and 2.67 µM (active)

**Q.** What about the EC50 [3] of the same compound?
**A.** 1.43 µM (active)

**Q.** For `Cc1oc2c(c1C(=O)c1ccccc1)C(=O)C(=O)c1ccccc1-2`, which CC50 [4] is on record?
**A.** 6.37 µM (active)

**Q.** With `CSc1ccc(C=NNc2ccc(S(=O)(=O)Nc3ccccc3C(=O)O)cc2[N+](=O)[O-])cc1` as the compound, how does the AC50 [5] read?
**A.** 5.43 µM (active)

**Q.** For `O=C(O)COc1ccc(/C=N/NC(=O)c2ccc(-c3csc(Nc4ccc(Cl)cc4)n3)cc2)cc1`, which IC50 [6] is on record?
**A.** > 99 µM (inactive)

**Q.** For `CC(/C=C1\SC(=S)N(NS(=O)(=O)c2ccccc2)C1=O)=C\c1ccccc1`, which IC50 [7] is on record?
**A.** 12 µM (active)
